Data from patent US12178878B2, “Amyloid peptide scaffolds coordinate with Alzheimer's disease drugs” (The University of Massachusetts, priority 2018, dated 2024).
Read-outs that look alike come from different tables or passages of the source.

How the values were obtained:
[1] = system: […] (SEQ ID NO: 3) amyloid peptide; experiment: Amyloid peptide/inhibitor coordination in dilute solution (1 mg/mL), drug captured after pellet washings; format: binding; conditions: FYTGAIIGNYF 1 mg/mL, 150 μM inhibitor loaded, by MS
Experimental: Amyloid Peptide/Inhibitor Coordination Studies in Dilute Solutions. […] Subsequently, 1 mL of DI water was added to wash the pellet (followed by vortexing until obtaining a homogenous dispersion) in order to remove any unbound inhibitor. The samples were then centrifuged again at the same conditions so as to pelletize the amyloid materials, and the supernatant was decanted. Another 1 mL of DI water was then added into the pellet, the mixture was vortexed, and the physically bound inhibitor into the dilute amyloid peptide dispersions was quantified by UV-Vis between 200-600 nm and MS. This step is denoted as wash 1 in our study. Two additional pellet purification cycles were realized with replacement of the decanted volume each time with 1 mL of fresh DI water (denoted as wash 2 and wash 3 respectively). The inhibitor-containing peptides amyloids were normalized at 400 nm over the respective no inhibitor-containing amyloid peptides at the specific washing step, and the measured inhibitor peak values (at 315 nm and 323 nm) were subtracted from that of the amyloid peptide carriers at the same wavelength and concentration. The amount of inhibitors coordinated with the amyloid peptide carriers was quantified based on a calibration curve by both UV-Vis and MS.
The peak at 315 nm was selected for inhibitor quantification due the absence of peaks at that range for both peptides. […] However, the peak at 315 nm was selected for inhibitor quantification, and the following equation was used for both peptides: A315=A315 ([…]/Donepezil)−A315 ([…])
The peak at 323 nm was used for inhibitor quantification due the absence of peaks at that range for both peptides.

[2] = system: […] (SEQ ID NO: 4) amyloid peptide; format: binding; conditions: YFTGAIIGNFY 1 mg/mL, 150 μM inhibitor loaded, by MS
Experimental: Amyloid Peptide/Inhibitor Coordination Studies in Dilute Solutions. […]. As a negative control, 1 mL of 0.1 M PBS buffer was added. The mixtures were vortexed and sonicated to homogenously disperse any solid aggregates and stirred overnight to allow for coordination. The mixtures were transferred to 2 mL Eppendorf tubes and centrifuged for 15 mins at 4,400 rpm (14° C.) to pelletize the amyloid bound-inhibitors, and the supernatant was decanted. Subsequently, 1 mL of DI water was added to wash the pellet (followed by vortexing until obtaining a homogenous dispersion) in order to remove any unbound inhibitor. The samples were then centrifuged again at the same conditions so as to pelletize the amyloid materials, and the supernatant was decanted. Another 1 mL of DI water was then added into the pellet, the mixture was vortexed, and the physically bound inhibitor into the dilute amyloid peptide dispersions was quantified by UV-Vis between 200-600 nm and MS. This step is denoted as wash 1 in our study. Two additional pellet purification cycles were realized with replacement of the decanted volume each time with 1 mL of fresh DI water (denoted as wash 2 and wash 3 respectively). The inhibitor-containing peptides amyloids were normalized at 400 nm over the respective no inhibitor-containing amyloid peptides at the specific washing step, and the measured inhibitor peak values (at 315 nm and 323 nm) were subtracted from that of the amyloid peptide carriers at the same wavelength and concentration. The amount of inhibitors coordinated with the amyloid peptide carriers was quantified based on a calibration curve by both UV-Vis and MS.
. The peak at 315 nm was selected for inhibitor quantification due the absence of peaks at that range for both peptides. […]. However, the peak at 315 nm was selected for inhibitor quantification, and the following equation was used for both peptides: A315=A315 ([…]/Donepezil)−A315 ([…])
[…]. The peak at 323 nm was used for inhibitor quantification due the absence of peaks at that range for both peptides. […].

[3] = system: […] (SEQ ID NO: 3) amyloid peptide; experiment: Coordination at higher peptide concentration (amyloid gel, 5 mg/mL), inhibitor capturing; format: binding; conditions: FYTGAIIGNYF gel 5 mg/mL, 1000 μM inhibitor solution added, by MS
Experimental: Amyloid Fibrils Preparation and Characterization. For the formation of fibrils, the amyloid peptides were dispersed in DI water at a 10 mg/ml, vortexed, heated at 60° C. for 30 sec, and sonicated for 15 mins (this cycle was repeated 10 times overall), and finally left overnight at room temperature to form a hydrogel. […] That was confirmed with Field Emission Scanning Electron Microscopy (FESEM) and Congo Red staining (CR).
Coordination Studies at Higher Peptide Concentrations and Inhibitor Capturing. […] (SEQ ID NO: 4) or […] (SEQ ID NO: 3) amyloid peptide gels (10 mg/mL, 1 mL volume) and was left to physically complex under stirring overnight (the final peptide concentration was diluted to 5 mg/mL). A control using 1 mL of 0.1 M PBS (no inhibitor) was also prepared. The complexed amyloid/inhibitor materials were then transferred to 5 mL conical Eppendorf tubes, and centrifuged for 15 mins at 4,400 rpm (14° C.). The supernatant was decanted, and 2 mL of DI water were subsequently added to wash the pellet (followed by vortexing until obtaining a homogenous dispersion) in order to remove any unbound inhibitor. The samples were then centrifuged again at the same conditions so as to pelletize the amyloid materials, and the supernatant was decanted. Another 2 mL of DI water were then added into the pellet, the mixture was vortexed, and the physically bound inhibitor into the amyloid peptides was quantified by UV-Vis between 200-600 nm and MS. This step is denoted as wash 1 in our study. Two additional pellet purification cycles were realized with replacement of the decanted volume each time with 2 mL of fresh DI water (denoted as wash 2 and wash 3 respectively). The inhibitor-containing amyloid peptides were normalized at 400 nm over the respective no inhibitor-containing ones at the specific washing step.

[4] = system: […] (SEQ ID NO: 4) amyloid peptide; format: binding; conditions: YFTGAIIGNFY gel 5 mg/mL, 1000 μM inhibitor solution added, by MS
Experimental: Amyloid Fibrils Preparation and Characterization. For the formation of fibrils, the amyloid peptides were dispersed in DI water at a 10 mg/ml, vortexed, heated at 60° C. for 30 sec, and sonicated for 15 mins (this cycle was repeated 10 times overall), and finally left overnight at room temperature to form a hydrogel.
A control using 1 mL of 0.1 M PBS (no inhibitor) was also prepared. The complexed amyloid/inhibitor materials were then transferred to 5 mL conical Eppendorf tubes, and centrifuged for 15 mins at 4,400 rpm (14° C.). The supernatant was decanted, and 2 mL of DI water were subsequently added to wash the pellet (followed by vortexing until obtaining a homogenous dispersion) in order to remove any unbound inhibitor. The samples were then centrifuged again at the same conditions so as to pelletize the amyloid materials, and the supernatant was decanted. Another 2 mL of DI water were then added into the pellet, the mixture was vortexed, and the physically bound inhibitor into the amyloid peptides was quantified by UV-Vis between 200-600 nm and MS. This step is denoted as wash 1 in our study. Two additional pellet purification cycles were realized with replacement of the decanted volume each time with 2 mL of fresh DI water (denoted as wash 2 and wash 3 respectively). The inhibitor-containing amyloid peptides were normalized at 400 nm over the respective no inhibitor-containing ones at the specific washing step.

[5] = biological target: AChE (Homo sapiens, UniProt P22303); conditions: in vitro, Ellman's assay, among marketed AD drugs; cited from earlier work
Chain of AChE (P22303 32-614): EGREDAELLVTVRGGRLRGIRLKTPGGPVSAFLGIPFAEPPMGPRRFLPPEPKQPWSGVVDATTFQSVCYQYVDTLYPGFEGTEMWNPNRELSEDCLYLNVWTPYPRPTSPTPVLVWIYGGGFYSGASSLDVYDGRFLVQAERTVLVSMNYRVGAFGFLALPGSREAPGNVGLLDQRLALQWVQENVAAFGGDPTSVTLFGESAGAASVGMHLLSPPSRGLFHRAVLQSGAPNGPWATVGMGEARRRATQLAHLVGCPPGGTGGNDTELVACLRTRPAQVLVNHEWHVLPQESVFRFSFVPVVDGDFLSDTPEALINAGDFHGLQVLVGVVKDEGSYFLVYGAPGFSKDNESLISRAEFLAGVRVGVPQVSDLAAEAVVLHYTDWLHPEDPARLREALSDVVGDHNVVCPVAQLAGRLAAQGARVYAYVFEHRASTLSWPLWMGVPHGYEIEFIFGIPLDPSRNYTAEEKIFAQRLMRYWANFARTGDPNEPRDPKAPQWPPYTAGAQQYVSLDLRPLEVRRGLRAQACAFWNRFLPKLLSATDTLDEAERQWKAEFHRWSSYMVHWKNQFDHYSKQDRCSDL

CC12CC3CC(C)(C1)CC(N)(C3)C2 [memantine]
AD compound captured, Wash 1 ([1]; 1st pellet wash): 18 ± 3 µM | AD compound captured, Wash 2 ([1]; 2nd pellet wash): 5 ± 2 µM | AD compound captured, Wash 3 ([1]; 3rd pellet wash): 4 ± 2 µM | AD compound captured, Wash 1 ([2]; 1st pellet wash): 8 ± 1 µM | AD compound captured, Wash 2 ([2]; 2nd pellet wash): 3 ± 1 µM | AD compound captured, Wash 3 ([2]; 3rd pellet wash): 2 ± 1 µM | AD compound captured, Wash 1 ([3]; 1st pellet wash): 32 ± 2 µM | AD compound captured, Wash 2 ([3]; 2nd pellet wash): 16 ± 2 µM | AD compound captured, Wash 3 ([3]; 3rd pellet wash): 12 ± 3 µM | AD compound captured, Wash 1 ([4]; 1st pellet wash): 21 ± 1 µM | AD compound captured, Wash 2 ([4]; 2nd pellet wash, room temperature): 10 ± 1 µM | AD compound captured, Wash 3 ([4]; 3rd pellet wash, room temperature): 8 ± 1 µM | inhibition towards AChE [5]: negligible inhibition
